# Source: US20150265644A1, “THERAPEUTIC METHODS AND COMPOSITIONS FOR TREATING DIABETES UTILIZING DITERPENOID COMPOUNDS” (Orient Europharma Co., Ltd., priority 2014, published 2015)
# What was measured:
# [1] = system: soleus muscle; experiment: Glycogen content in soleus muscle in vivo; parameters: species or system mice; conditions: mice with type 2 DM, insulin 0.5 IUkg^−1 i.p.
# Procedure: (§1) The mice were injected with borapetoside A (10 mgkg^−1, interperitoneal) for 60 minutes or insulin (0.5 IUkg^−1, interperitoneal) for 30 minutes. After the treatment, the anesthetic mice were sacrificed by cervical dislocation to collect the soleus muscle and liver. About 40 mg of each sample was dissolved in 1 mol/L KOH at 75° C. for 30 min. The dissolved homogenate was neutralized by glacial acetic acid and then incubated overnight in acetate buffer (0.3 mol/L sodium acetate, pH 4.8) containing amyloglucosidase (Sigma, St. Louis, Mo.). The mixture was then neutralized with 1 mol/L NaOH to stop the reaction. The glycogen contents in the tissue samples were determined as μg of glucose per mg of tissue (wet weight).
# [2] = system: IL-6-treated C2C12 cells; experiment: Glycogen content assay in IL-6-induced insulin resistant C2C12 cells; type: cell-based; conditions: IL-6-treated C2C12, 1 nM insulin, 30 minutes
# Procedure: The C2C12 skeletal muscle cells were cultured in Dulbecco's modified Eagle's medium (DMEM; Gibco/Invitrogen, Carlsbad, Calif.), and the human hepatocellular carcinoma cell line, Hl-ep3B, was cultured in Roswell Park Memorial Institute medium 1640 (RPMI 1640 medium; Gibco/Invitrogen, Carlsbad, Calif.). Cells were cultured at 37° C. in the humidified incubator supplied with 5% CO2. Culture mediums were supplemented with 4.5 mgmL^−1 glucose, penicillin 100 IUmL^−1, streptomycin 100 μgmL^−1 and 10% fetal bovine serum (Gibco/Invitrogen, Carlsbad, Calif.). Only C2C12 cells were then switched to 2% horse serum for 3 days after reaching the 70% confluence. Myotubes formation was achieved after 4 days of incubation, and the cells were used for subsequent experiments. Culture mediums were replaced by serum free DMEM or RPMI for 24 h before experiments (see e.g., procedure described in Sultan et al., 2006).
# C2C12 and Hep3B cells were treated with 1 nM insulin, 100 μM metformin, and the assigned concentration of borapetoside A for 30 minutes. To develop the insulin resistance state of cells, C2C12 cells were incubated with IL-6 at 20 ngmL^−1 for 1 hour. Later, the cells were treated with 1 nM insulin, 100 μM metformin, and the assigned concentration of borapetoside A for 30 minutes. After the assigned treatment, cells were washed twice with phosphate buffered saline (PBS). Glycogen content was measured as previously described, with some modifications (see e.g., Savage et al., 2008). The protein concentrations of the cell lysates were determined by using Pierce BCA Protein Assay Kit (Thermo-Scientific, Rockford, Ill.). The glycogen content of each sample was normalized by total protein.
# [3] = system: liver; experiment: Glycogen content in liver in vivo; parameters: species or system mice; conditions: mice with type 2 DM, insulin 0.5 IUkg^−1 i.p.
# Procedure: as §1
# [4] = Intraperitoneal glucose tolerance test; type: in vivo, mice; conditions: metformin-treated group, compared to the vehicle group, normal and type 2 DM mice
# Procedure: (§2) After three days of acclimatization, the mice had free access to a standard rodent chow (normal mice), a standard rodent chow after single 250 mgkg^−1 streptozotocin (STZ) intraperitoneal injection (TIDM mice), and a fat-rich chow diet and fructose-sweetened water (T2DM mice) for 4 weeks. The induction of Type 1 DM was assessed and confirmed when the mice had plasma glucose levels ≧350 mgdL^−1, accompanied with polyuria, hyperphagia and decreased body weight. The induction Type 2 DM in the mice was assessed by measuring fasting plasma glucose levels and confirmed when plasma glucose level was ≧150 mgdL^−1 after the 4-week induction. The animals were assigned randomly into three groups, with seven animals in each group. In group I, the mice were treated with vehicle, 2% DMSO in normal saline, as the negative control. In group II, the mice were intraperitoneally treated with borapetoside A (0.1-10 mgkg^−1). In […], the mice received intraperitoneally metformin (300 mgkg^−1; Sigma Chemical Co., St. Louis, Mo., U.S.A.) or insulin (0.5 IUkg^−1; Insulin Actrapid® HM; Novo Nordisk, Denmark). In the acute study, mice under anesthesia received a single intraperitoneal administration of borapetoside A, negative control, or positive control. In the subacute study, mice received intraperitoneal administrations of borapetoside A, vehicle, or insulin twice a day for seven days.
# (§3) Blood samples were collected from the orbital vascular plexus of the mice under anesthesia. Blood samples were then centrifuged at 13000 rpm for 5 min, and the plasma samples were collected and kept on ice prior to the assay. The plasma glucose concentration was measured by Glucose Kit Reagent (Biosystems S.A., Barcelona, Spain) following the manufacturer's instructions, and the insulin levels were estimated using mouse insulin ELISA kit (Mercodia AB, Uppsala, Sweden).
# The mice were maintained under anesthesia throughout the procedure. Glucose (2.0 gkg^−1) was administered intraperitoneally. Blood samples were collected from the orbital vascular plexus at 0, 30, 60, 120 min. The concentrations of the plasma glucose were measured, and the values of AUC were calculated accordingly.
# [5] = Plasma insulin level before and after treatment in mice; type: in vivo
# Procedure: The 4-week-old male ICR mice were purchased from the Animal Center of the College of Medicine, National Taiwan University (Taipei, Taiwan) with delicate humane care. This animal study was conducted by following the University ethical guidelines and the ‘Guide for the Care and Use of Laboratory Animals’ published by the US National Institutes of Health (NIH publication no. 85-23, revised 1996). The animal experiments were approved by the Institutional Animal Care and Use Committee (IACUC) of the National Taiwan University (IACUC No. 20110073). Animals were housed in a room at the constant temperature, 22±1° C., with 12 hours light and dark cycles.
# as §2, §3
compound,measurement,setting,value
"insulin: short-acting insulin, Insulin Actrapid HM (Novo Nordisk), positive control 0.5 IUkg^−1 [reference compound]",glycogen synthesis in soleus muscle,[1],failed to enhance
same,glycogen content,[2],not increased
same,glycogen synthesis in liver,[3],failed to enhance
"CN(C)C(=N)N=C(N)N [Metformin, metformin, reference compound]",increase of plasma glucose level at 30 min,[4],significantly suppressed
same,Plasma insulin,"[5]; T1DM mice, metformin 300 mgkg^−1, after-treatment",22.7 ± 0.3 pmol/L
same,Plasma insulin,"[5]; T1DM mice, metformin 300 mgkg^−1, before-treatment",22.4 ± 0.4 pmol/L
same,Plasma insulin,"[5]; T2DM mice, metformin 300 mgkg^−1, after-treatment",182.0 ± 27.7 pmol/L
same,Plasma insulin,"[5]; T2DM mice, metformin 300 mgkg^−1, before-treatment",148.1 ± 15.2 pmol/L
same,Plasma insulin,"[5]; normal mice, metformin 300 mgkg^−1, after-treatment",72 ± 3.1 pmol/L
same,Plasma insulin,"[5]; normal mice, metformin 300 mgkg^−1, before-treatment",66.6 ± 1.3 pmol/L
